Values of other authors, collected in patent publication US11576862B2, “Methods and compositions for preparing a silk microsphere” (Trustees of Tufts College, priority 2012, dated 2023).
Where a name gives a salt, the structure may show the parent alone.

Q: For CC12CC3CC(C)(C1)CC(N)(C3)C2 [Memantine hydrochloride, 3,5-dimethyltricyclo[3.3.1.1]decan-1amine], which water solubility is on record?
A: The water solubility was 50 mg/mL.
